Source: patent US20090270371A1, “QUINOLINE DERIVATIVES USEFUL IN THE TREATMENT OF MGLUR5 RECEPTOR-MEDIATED DISORDERS” (priority 2005, published 2009)

What follows are compounds tested against T1, rat mGluR5 receptors (Rattus norvegicus, UniProt P31424) (assay: mGluR5 receptor binding test, rat cerebro-cortical membrane preparation, [3H]-M-MPEP). Details: affinity for rat mGluR5 receptors; [3H]-M-MPEP (2 nM) radioligand.
T1 construct: rat cerebro-cortical membrane preparation was used; from tissue; host or cells: rat cerebral cortex membranes
T1 sequence (P31424 21-1203): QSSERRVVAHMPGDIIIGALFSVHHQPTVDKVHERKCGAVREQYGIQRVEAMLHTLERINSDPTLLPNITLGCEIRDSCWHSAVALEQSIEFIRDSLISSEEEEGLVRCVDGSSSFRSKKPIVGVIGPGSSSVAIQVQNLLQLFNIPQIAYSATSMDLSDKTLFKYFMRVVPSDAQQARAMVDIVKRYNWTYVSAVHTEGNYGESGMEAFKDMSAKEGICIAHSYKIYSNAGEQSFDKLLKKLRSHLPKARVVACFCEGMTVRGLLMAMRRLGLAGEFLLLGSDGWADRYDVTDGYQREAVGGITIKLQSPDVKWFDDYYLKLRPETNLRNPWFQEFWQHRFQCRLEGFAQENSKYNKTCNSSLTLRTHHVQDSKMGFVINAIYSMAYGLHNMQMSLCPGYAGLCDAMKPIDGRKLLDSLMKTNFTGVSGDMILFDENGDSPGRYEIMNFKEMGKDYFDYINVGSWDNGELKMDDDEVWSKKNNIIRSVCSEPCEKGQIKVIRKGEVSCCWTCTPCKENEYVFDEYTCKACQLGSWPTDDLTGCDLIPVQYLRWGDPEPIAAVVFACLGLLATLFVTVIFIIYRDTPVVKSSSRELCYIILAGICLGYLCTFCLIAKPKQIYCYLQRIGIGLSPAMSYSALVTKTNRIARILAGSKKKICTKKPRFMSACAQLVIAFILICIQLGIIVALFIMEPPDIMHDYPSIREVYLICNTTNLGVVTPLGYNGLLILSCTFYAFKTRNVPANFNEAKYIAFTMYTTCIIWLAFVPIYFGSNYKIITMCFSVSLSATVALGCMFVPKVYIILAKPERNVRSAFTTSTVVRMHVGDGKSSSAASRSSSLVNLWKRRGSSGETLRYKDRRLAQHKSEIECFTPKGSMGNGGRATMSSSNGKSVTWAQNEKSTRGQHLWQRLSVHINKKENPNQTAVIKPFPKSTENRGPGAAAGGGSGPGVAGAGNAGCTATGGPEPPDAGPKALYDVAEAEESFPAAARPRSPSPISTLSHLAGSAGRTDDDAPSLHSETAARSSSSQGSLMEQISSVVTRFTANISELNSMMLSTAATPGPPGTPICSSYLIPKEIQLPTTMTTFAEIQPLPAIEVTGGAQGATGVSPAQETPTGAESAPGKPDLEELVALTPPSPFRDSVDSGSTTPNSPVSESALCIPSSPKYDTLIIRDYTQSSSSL
Method in brief: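 Radioligand binding used rat cerebro-cortical membranes with 2 nM [3H]-M-MPEP. Nonspecific binding was defined with 10 μM M-MPEP. The method follows a modification of a published procedure.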
In the case of `CC1CCN(c2c(S(=O)(=O)c3ccccc3)cnc3cc(Cl)ccc23)CC1` [Compound 194], the Ki is reported as under 200 nM. `CC1CCN(c2c(S(=O)(=O)c3ccc(Cl)cc3)cnc3cc(Cl)ccc23)CC1` [Compound 195, 7-Chloro-3-(4-chloro-benzenesulfonyl)-4-(4-methyl-piperidin-1-yl)-quinoline] was tested, and the Ki was under 200 nM. With `COc1ccc(S(=O)(=O)c2cnc3cc(Cl)ccc3c2N2CCC(C)CC2)cc1OC` [Compound 196] the Ki was under 200 nM. Compound `CC1CCN(c2c(S(=O)(=O)c3cccc(F)c3)cnc3cc(Cl)ccc23)CC1` [Compound 197] has a Ki of under 200 nM. Compound `COc1cccc(S(=O)(=O)c2cnc3cc(Cl)ccc3c2N2CCC(C)CC2)c1` [Compound 198] has a Ki of under 200 nM. With `Cc1ccc(S(=O)(=O)c2cnc3cc(Cl)ccc3c2N2CCC(C)CC2)cc1C` [Compound 199] the Ki was under 200 nM. For `COc1ccc(S(=O)(=O)c2cnc3cc(Cl)ccc3c2N2CCC(C)CC2)cc1Cl` [Compound 200], the Ki was under 200 nM. With `CC1CCN(c2c(S(=O)(=O)c3cccc(Cl)c3)cnc3cc(Cl)ccc23)CC1` [Compound 201] the Ki was under 200 nM. `CC1CCN(c2c(S(=O)(=O)c3ccc(Cl)c(Cl)c3)cnc3cc(Cl)ccc23)CC1` [Compound 202] was tested, and the Ki was under 200 nM. Work on `Cc1ccc(S(=O)(=O)c2cnc3cc(Cl)ccc3c2N2CCC(C)CC2)cc1F` [Compound 203] yielded a Ki of under 200 nM. `CC1CCN(c2c(S(=O)(=O)c3ccc(C#N)cc3)cnc3cc(Cl)ccc23)CC1` [Compound 204] gave a Ki of 200 to 500 nM. `Cc1ccc(S(=O)(=O)c2cnc3cc(Cl)ccc3c2N2CCC(C)CC2)cc1Cl` [Compound 205] gave a Ki of under 200 nM. `CC1CCN(c2c(S(=O)(=O)c3ccc(F)c(F)c3)cnc3cc(Cl)ccc23)CC1` [Compound 206] gave a Ki of under 200 nM. For `CC1CCN(c2c(S(=O)(=O)c3ccc(F)c(Cl)c3)cnc3cc(Cl)ccc23)CC1` [Compound 207], the Ki was under 200 nM. Compound `CC1CCN(c2c(S(=O)(=O)c3cc(Cl)cc(Cl)c3)cnc3ccc(Cl)cc23)CC1` [Compound 208] has a Ki of under 200 nM. `CC1CCN(c2c(S(=O)(=O)c3cc(F)cc(F)c3)cnc3ccc(Cl)cc23)CC1` [Compound 209] was tested, and the Ki was under 200 nM. For `CC1CCN(c2c(S(=O)(=O)c3cccc(C#N)c3)cnc3ccc(Cl)cc23)CC1` [Compound 210], the Ki was under 200 nM. Work on `Cc1ccc(S(=O)(=O)c2cnc3ccc(Cl)cc3c2N2CCC(C)CC2)cc1` [Compound 211] yielded a Ki of under 200 nM. Compound `CC1CCN(c2c(S(=O)(=O)c3ccc(F)cc3)cnc3ccc(Cl)cc23)CC1` [Compound 212] has a Ki of under 200 nM. `CC1CCN(c2c(S(=O)(=O)c3ccc(Cl)cc3)cnc3ccc(Cl)cc23)CC1` [Compound 213] showed a Ki of under 200 nM. In the case of `CC1CCN(c2c(S(=O)(=O)c3cccc(F)c3)cnc3ccc(Cl)cc23)CC1` [Compound 214], the Ki is reported as 200 to 500 nM. With `COc1cccc(S(=O)(=O)c2cnc3ccc(Cl)cc3c2N2CCC(C)CC2)c1` [Compound 215] the Ki was under 200 nM. With `CC1CCN(c2c(S(=O)(=O)c3cccc(Cl)c3)cnc3ccc(Cl)cc23)CC1` [Compound 216] the Ki was over 500 nM. With `Cc1ccc(S(=O)(=O)c2cnc3ccc(Cl)cc3c2N2CCC(C)CC2)cc1F` [Compound 217] the Ki was 200 to 500 nM. `CC1CCN(c2c(S(=O)(=O)c3ccc(C#N)cc3)cnc3ccc(Cl)cc23)CC1` [Compound 218] was tested, and the Ki was over 500 nM. `Cc1ccc(S(=O)(=O)c2cnc3ccc(Cl)cc3c2N2CCC(C)CC2)cc1Cl` [Compound 219] gave a Ki of 200 to 500 nM. With `Cc1ccc(S(=O)(=O)c2cnc3ccc(Cl)cc3c2N2CCC(C)CC2)cc1C` [Compound 220] the Ki was under 200 nM. `COc1ccc(S(=O)(=O)c2cnc3ccc(Cl)cc3c2N2CCC(C)CC2)cc1Cl` [Compound 221] gave a Ki of over 500 nM. With `CC1CCN(c2c(S(=O)(=O)c3ccc(F)c(F)c3)cnc3ccc(Cl)cc23)CC1` [Compound 222] the Ki was 200 to 500 nM. With `CC1CCN(c2c(S(=O)(=O)c3ccc(Cl)c(Cl)c3)cnc3ccc(Cl)cc23)CC1` [Compound 223] the Ki was under 200 nM. With `Cc1cc(C)cc(S(=O)(=O)c2cnc3ccc(Cl)cc3c2N2CCC(C)CC2)c1` [Compound 224] the Ki was over 500 nM. With `COc1ccc(S(=O)(=O)c2cnc3ccc(Cl)cc3c2N2CCC(C)CC2)cc1OC` [Compound 225] the Ki was 200 to 500 nM. Compound `CC1CCN(c2c(S(=O)(=O)c3cc(Cl)cc(Cl)c3)cnc3c(F)cccc23)CC1` [Compound 226] has a Ki of under 200 nM. `CC1CCN(c2c(S(=O)(=O)c3cc(F)cc(F)c3)cnc3c(F)cccc23)CC1` [Compound 227] showed a Ki of over 500 nM. In the case of `CC1CCN(c2c(S(=O)(=O)c3ccc(F)cc3)cnc3c(F)cccc23)CC1` [Compound 228], the Ki is reported as over 500 nM. Compound `COc1ccc(S(=O)(=O)c2cnc3c(F)cccc3c2N2CCC(C)CC2)cc1` [Compound 229] has a Ki of 200 to 500 nM. `CC1CCN(c2c(S(=O)(=O)c3ccccc3)cnc3c(F)cccc23)CC1` [Compound 230] showed a Ki of over 500 nM. `CC1CCN(c2c(S(=O)(=O)c3ccc(Cl)cc3)cnc3c(F)cccc23)CC1` [Compound 231] showed a Ki of under 200 nM. `CC1CCN(c2c(S(=O)(=O)c3cccc(F)c3)cnc3c(F)cccc23)CC1` [Compound 232] gave a Ki of 200 to 500 nM. `Cc1ccc(S(=O)(=O)c2cnc3c(F)cccc3c2N2CCC(C)CC2)cc1F` [Compound 233] was tested, and the Ki was under 200 nM. For `CC1CCN(c2c(S(=O)(=O)c3ccc(C#N)cc3)cnc3c(F)cccc23)CC1` [Compound 234], the Ki was under 200 nM. Compound `Cc1ccc(S(=O)(=O)c2cnc3c(F)cccc3c2N2CCC(C)CC2)cc1` [Compound 235] has a Ki of under 200 nM. `CC1CCN(c2c(S(=O)(=O)c3ccc(Cl)c(Cl)c3)cnc3c(F)cccc23)CC1` [Compound 236] was tested, and the Ki was under 200 nM. In the case of `CC1CCN(c2c(S(=O)(=O)c3ccc(F)c(Cl)c3)cnc3c(F)cccc23)CC1` [Compound 237], the Ki is reported as under 200 nM. Compound `CC1CCN(c2c(S(=O)(=O)c3ccc(F)c(F)c3)cnc3c(F)cccc23)CC1` [Compound 238] has a Ki of under 200 nM. Work on `COc1ccc2ncc(S(=O)(=O)c3cc(Cl)cc(Cl)c3)c(N3CCC(C)CC3)c2c1` [Compound 239] yielded a Ki of under 200 nM. `COc1ccc2ncc(S(=O)(=O)c3cc(F)cc(F)c3)c(N3CCC(C)CC3)c2c1` [Compound 240] was tested, and the Ki was over 500 nM. `COc1ccc2ncc(S(=O)(=O)c3ccc(F)cc3)c(N3CCC(C)CC3)c2c1` [Compound 241] gave a Ki of over 500 nM. For `COc1ccc2ncc(S(=O)(=O)c3ccc(OC)c(OC)c3)c(N3CCC(C)CC3)c2c1` [Compound 242], the Ki was over 500 nM. `COc1ccc2ncc(S(=O)(=O)c3cccc(F)c3)c(N3CCC(C)CC3)c2c1` [Compound 243] gave a Ki of 200 to 500 nM. Work on `COc1cccc(S(=O)(=O)c2cnc3ccc(OC)cc3c2N2CCC(C)CC2)c1` [Compound 244] yielded a Ki of over 500 nM. `COc1ccc2ncc(S(=O)(=O)c3ccc(OC)c(Cl)c3)c(N3CCC(C)CC3)c2c1` [Compound 245] gave a Ki of over 500 nM. For `COc1ccc2ncc(S(=O)(=O)c3cccc(Cl)c3)c(N3CCC(C)CC3)c2c1` [Compound 246], the Ki was over 500 nM. With `COc1ccc2ncc(S(=O)(=O)c3ccc(C)c(F)c3)c(N3CCC(C)CC3)c2c1` [Compound 247] the Ki was 200 to 500 nM. In the case of `COc1ccc2ncc(S(=O)(=O)c3ccc(C)c(Cl)c3)c(N3CCC(C)CC3)c2c1` [Compound 248], the Ki is reported as under 200 nM. In the case of `COc1ccc2ncc(S(=O)(=O)c3ccc(Cl)c(Cl)c3)c(N3CCC(C)CC3)c2c1` [Compound 249], the Ki is reported as under 200 nM. With `COc1ccc2ncc(S(=O)(=O)c3ccc(C)c(C)c3)c(N3CCC(C)CC3)c2c1` [Compound 250] the Ki was 200 to 500 nM. With `CC1CCN(c2c(S(=O)(=O)c3ccc(F)cc3)cnc3ccc(C#N)cc23)CC1` [Compound 252] the Ki was 200 to 500 nM.
